ChEMBL document CHEMBL1201862, “PubChem BioAssay data set” (2004)
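In this assay, cells in 96-well plates receive the compound at five concentrations for 48 hours. Endpoints are linearly interpolated between the surrounding concentrations. Abbreviation: GI50, concentration required for 50% inhibition of growth.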 The source made the active and inactive calls. Rule as the data show it: active = GI50 up to about 1.1 µM and inactive = higher.

Experiments:
Assay in all cases: NCI tumour cell line growth inhibition, 48 h
[1] = test system: HCT-116
[2] = test system: SW-620
[3] = test system: OVCAR-5
[4] = test system: ACHN
[5] = test system: EKVX
[6] = test system: SNB-75
[7] = test system: SR
[8] = test system: UACC-257
[9] = test system: NCI-H226
[10] = test system: OVCAR-4
[11] = test system: KM12
[12] = test system: CCRF-CEM
[13] = test system: COLO 205
[14] = test system: HL-60
[15] = test system: TK-10
[16] = test system: M19-MEL
[17] = test system: NCI-H522
[18] = test system: MDA-N
[19] = test system: MDA-MB-231
[20] = test system: DU-145

Measured: GI50

COc1ccccc1NC(=O)C1=C(C)NC(C)=C(C(=O)Nc2ccccc2OC)C1c1ccccc1Cl
inactive: [1] 52.8 µM | [2] > 100 µM | [3] > 100 µM | [4] 55.7 µM | [5] 53.5 µM | [6] 46.9 µM | [7] 36.6 µM | [8] > 100 µM | [9] > 100 µM | [10] > 100 µM | [11] 61 µM | [12] 38.4 µM | [13] > 100 µM | [14] 53.6 µM | [15] > 100 µM | [16] > 100 µM

CCN(CC)CCCC(C)Nc1c2ccc(Cl)cc2nc2cc(Cl)ccc12 (stereo not drawn)
inactive: [1] 2.27 µM | [2] 3.24 µM | [3] 6.7 µM | [5] 9.73 µM | [6] 7.03 µM | [8] 4.6 µM | [9] 4.27 µM | [10] 3.37 µM | [11] 3.56 µM | [12] 1.76 µM | [17] 5.07 µM | [13] 1.94 µM | [14] 1.91 µM | [16] 4.85 µM

COC/C=C\[C@@]1(O)CCCC[C@@H]1CC(OC)OC
inactive: [1] 22.7 µM | [18] 33.7 µM | [2] 32.5 µM | [3] > 100 µM | [19] > 100 µM | [4] 10.1 µM | [5] > 100 µM | [6] 60 µM | [7] 37.3 µM | [20] 38.5 µM | [8] > 100 µM | [9] > 59.2 µM | [10] 31.8 µM | [11] 31 µM | [12] 19.2 µM | [17] 17.5 µM | [13] > 95.5 µM | [14] 6.98 µM | [15] > 100 µM

O=C1C(c2ccccc2)=C(c2ccccc2)C(c2ccccc2)/C1=C1\C(=O)C(c2ccccc2)=C(c2ccccc2)C1c1ccccc1 (stereo not drawn)
inactive: [1] > 100 µM | [2] > 100 µM | [3] > 100 µM | [4] > 100 µM | [5] > 100 µM | [6] > 100 µM | [7] > 100 µM | [8] > 100 µM | [9] > 100 µM | [10] > 100 µM | [11] > 100 µM | [17] > 100 µM | [13] > 100 µM | [14] > 100 µM | [15] > 100 µM | [16] > 100 µM

C/C(=N/NS(=O)(=O)c1c(C)cc(C)cc1C)c1cccc[n+]1[O-]
inactive: [1] > 100 µM | [2] > 100 µM | [3] > 100 µM | [4] > 100 µM | [5] > 100 µM | [6] 76.2 µM | [7] > 100 µM | [8] > 100 µM | [10] > 100 µM | [11] > 100 µM | [12] > 100 µM | [17] 83.4 µM | [14] > 100 µM | [15] > 100 µM | [16] > 100 µM

O=C1C=CC(=O)C12CCc1ccccc12
inactive: [1] > 100 µM | [2] 64.7 µM | [3] > 100 µM | [4] > 100 µM | [5] > 100 µM | [6] 51.2 µM | [8] > 100 µM | [9] > 100 µM | [10] > 100 µM | [11] > 100 µM | [12] 28.5 µM | [17] 16.7 µM | [13] 57.5 µM | [14] 24.2 µM | [15] > 100 µM | [16] > 100 µM

Clc1ccc(-c2c(C3=NCCCN3)nnn2-c2ccccc2)cc1
inactive: [1] 43.1 µM | [2] 20.2 µM | [3] 67 µM | [4] > 100 µM | [5] > 100 µM | [6] > 100 µM | [7] 56.1 µM | [8] > 100 µM | [9] > 100 µM | [10] > 100 µM | [11] > 100 µM | [12] 35.9 µM | [17] > 100 µM | [13] 34.9 µM | [14] 17.6 µM | [15] > 100 µM | [16] 69.5 µM

Cc1ccc(C(=O)N2c3ccccc3N(C)n3cccc3C2CC(=O)O)cc1 (stereo not drawn)
inactive: [2] > 100 µM | [3] > 100 µM | [4] > 100 µM | [5] > 100 µM | [6] > 100 µM | [8] > 100 µM | [9] > 100 µM | [10] > 100 µM | [11] > 100 µM | [12] > 100 µM | [17] > 100 µM | [13] > 100 µM | [14] > 100 µM | [15] > 100 µM | [16] > 100 µM
